According to the supplement of paper PMC6206229:
Values after ≈ are worked out from the molar mass of the structure shown.

Tests used:
[1] = test system: Staphylococcus aureus ATCC 700699 (MRSA); assay: minimum inhibitory concentration; extreme values may be limits of the assay
Procedure, shortened: (§1)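 Methicillin-susceptible and methicillin-resistant Staphylococcus aureus were assessed by broth microdilution with a resazurin read-out, compounds spanning 0 to 100 µM and incubated for 24 h at 37°C before 30 µl of 0.015% resazurin was added for 2–4 h. For the minimum inhibitory concentration, the lowest concentration whose well stayed blue rather than pink was recorded.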

[2] = test system: Staphylococcus aureus ATCC 29213 (MSSA); assay: as above
Procedure, shortened: as §1

Compound | minimum inhibitory concentration [1] [µM] | minimum inhibitory concentration [2] [µM]
CC(Oc1cccc(Cl)c1)C(=O)Nc1ccc2oc(-c3ccncc3)nc2c1 (stereo not given) | > 50 | > 50
O=C1[C@@H](Oc2ccccc2)[C@@H](c2ccc(Cl)cc2)N1CCn1cnc2c(NCc3ccccc3)ncnc21 | > 50 | > 50
Cc1cccc(NC(=O)c2cc(S(=O)(=O)N(C)c3ccc(F)cc3)ccc2Cl)n1 | > 50 | > 50
Cc1nn(C(=O)Nc2cccc(C(F)(F)F)c2)c(C)c1Sc1ncccn1 | > 50 | > 50
COc1ccc(-c2nc(-c3cccc(NC(=O)Cc4ccc(F)cc4)c3)no2)cc1OC | > 50 | > 50
COc1ccc(-c2nn(C(C)C)c3ncnc(N)c23)cc1OC | > 50 | > 50
COc1cccc(-c2nc3c(N4CCCC4)cccc3n2CC2CCCN2)n1 (stereo not given) | 50 (≈ 18.9 µg/mL) | 25 (≈ 9.44 µg/mL)
COc1ccc(Cn2cnc3c(-c4ccco4)nc(Cl)nc32)cc1 | > 50 | > 50
CCCc1ccc(S(=O)(=O)Nc2ccc(CN3CCN(CC4CC4)CC3)cc2)cc1 | > 50 | > 50
O=C(Nc1ccc(N2CCNCC2)cc1)c1ccn2ncc(-c3cccc(Cl)c3)c2n1 | > 50 | > 50
Cc1nn(C)c(C)c1NS(=O)(=O)c1c(Cl)cc(-c2ccnc(N3CCNCC3)c2)cc1Cl | > 50 | > 50
CCc1ccc(S(=O)(=O)Nc2cc(CN3CCN(CCC(C)C)CC3)ccc2C)cc1 | > 50 | > 50
Clc1ccc(-n2cc(COc3ccnc4ccccc34)nn2)cc1 | > 50 | > 50
CCOc1ccc2cc(-c3nn(C(C)(C)C)c(N)c3C(N)=O)cnc2c1 | > 50 | > 50
CCN(CC)CCCN1CCN(C(=O)c2cccc(-c3noc(C(F)(F)F)n3)c2)CC1 | > 50 | > 50
CN1CCC(NCc2cccc(-c3ccc(S(=O)(=O)NCc4ccccc4)cc3)c2)CC1 | > 50 | > 50
Cc1cc(C)n(-c2ccc(NC(=O)C3CCN(Cc4cnc(C)s4)CC3)cc2)n1 | > 50 | > 50
Cc1cc(Cl)ccc1NC(=O)CCc1ccc(S(=O)(=O)NCC(C)C)cc1 | > 50 | > 50
CC(Oc1ccccc1)C(=O)Nc1nc(-c2ccccn2)cs1 (stereo not given) | 50 (≈ 16.3 µg/mL) | 50 (≈ 16.3 µg/mL)
O=C(C1CCN(c2nnnn2-c2ccccc2)CC1)N1CCc2ccccc2C1 | > 50 | > 50
CC(C(=O)N1CCCC1)N1CCN(S(=O)(=O)c2ccc(C(C)(C)C)cc2)CC1 (stereo not given) | > 50 | > 50
COc1ccc(CCN2CCC(NCc3cccc(N(C)C)c3)CC2)cc1 | > 50 | > 50
COc1ccc(C2CC(c3cccs3)=NN2C(=O)c2ccco2)cc1OC (stereo not given) | > 50 | > 50
CC(C)(C)OC(=O)N1CCC(Cn2nc(-c3cnc4ccccc4c3)c3c(N)ncnc32)CC1 | > 50 | > 50

Compound | minimum inhibitory concentration [1] [µM] | minimum inhibitory concentration [2] [µM]
O=C(Nc1cnc2ccccc2c1)c1cccc(-n2cnnn2)c1 | > 50 | > 50
CS(=O)(=O)c1ccccc1C(=O)N(Cc1ccccc1)c1ccccc1 | > 50 | > 50
Cc1ccc(-c2nc(CN(Cc3ccccn3)C(C)C)cs2)o1 | > 50 | > 50
Cc1nc(-c2ccccn2)nc(NCCc2ccc(S(C)(=O)=O)cc2)c1Cl | > 50 | > 50
CCOC(=O)c1c(NC(=O)c2c(F)c(F)c(F)c(F)c2F)sc(C(N)=O)c1C | > 50 | > 50
N#Cc1ccc(-c2ccc(OCC(N)=O)cc2)cc1 | > 50 | > 50
CO[C@@H]1CN(c2ccc(C#CC3(O)CN4CCC3CC4)c(Cc3ccccc3)n2)C[C@H]1O (stereo not given in full) | > 50 | > 50
Cc1ccc(Oc2ccc(NC(=O)CNc3ccccc3N3CCCC3=O)cc2)cc1 | > 50 | > 50
COc1cc(NC(=O)Cc2nn(C)c(=O)c3ccccc23)ccc1Cl | > 50 | > 50
O=C1COCc2ccc(Br)cc2N1Cc1ccc(C(F)(F)F)cc1 | > 50 | > 50
CO/C=C(/C(=O)OC)c1ccccc1Oc1cc(Oc2ccccc2C#N)ncn1 | > 50 | > 50
c1coc(CNc2nc(N3CCCCC3)nc3ccccc23)c1 | > 50 | > 50
CCOC(=O)NC(=O)c1ccsc1NC(=O)c1nc2ccccc2s1 | > 50 | > 50
Cc1cc(OCC(=O)NCc2ccccc2)c2cc(Br)ccc2n1 | > 50 | > 50
CC(C)c1ncc(-c2ccncc2)c([C@H]2CC[C@H](CNC(=O)c3cccnc3)CC2)n1 | > 50 | > 50
CN1CCN(CCCOc2ncc(Nc3ncc(-c4ccc(C(F)(F)F)c(F)c4)nc3C(N)=O)cn2)CC1 | > 50 | > 50
FC(F)(F)c1cccc(-c2nc3c(NCc4ccncc4)nccc3[nH]2)c1 | > 50 | > 50
O=C(NCCc1c[nH]c2ccccc12)c1cc2ccccc2oc1=O | > 50 | > 50
COc1cc(-c2cc(-c3ccc(S(C)(=O)=O)cc3)cnc2N)ccc1O | > 50 | > 50
FC(F)(F)c1cc(NCCc2ccccc2)nc(-c2ccccn2)n1 | > 50 | > 50
CNC(=O)CNc1nc(-c2ccccn2)nc2scc(-c3ccccc3)c12 | > 50 | > 50
CCN(CC)S(=O)(=O)c1ccc(Cl)c(C(=O)Nc2ccc3nc(C)sc3c2)c1 | > 50 | > 50
CCOC(=O)c1noc(N)c1-c1ccccc1 | 50 (≈ 11.6 µg/mL) | 50 (≈ 11.6 µg/mL)
Cc1nn(C)cc1C(C)Nc1nncc(-c2ccc(C(F)(F)F)cc2)n1 (stereo not given) | > 50 | > 50

Compound | minimum inhibitory concentration [1] [µM] | minimum inhibitory concentration [2] [µM]
Cc1nn2c(O)c3c(nc2c1-c1ccc(F)cc1)CCCC3 | > 50 | > 50
CN1CCC(c2cc(-c3ccncc3)c(-c3ccc(F)cc3)[nH]2)CC1 | > 50 | > 50
O=C(Nc1cccnc1)c1c(O)c2cccc3c2n(c1=O)CC3 | 50 (≈ 15.4 µg/mL) | 25 (≈ 7.68 µg/mL)
O=C(NC1CCCCC1)N1CCN(Cc2ccc3c(c2)OCO3)CC1 | > 50 | > 50
CCC(Sc1nc2ccccc2o1)C(=O)Nc1nnc(C)s1 (stereo not given) | 50 (≈ 16.7 µg/mL) | 50 (≈ 16.7 µg/mL)
Cc1cc2nc(NC(=O)C(C)(C)C)nc(Cl)c2n1Cc1ccc(Cl)cc1 | > 50 | > 50
Cc1nn2c(=O)c3c([nH]c2c1-c1ccc(Cl)cc1)CCCC3 | > 50 | > 50
C[C@H](C(N)=O)N1CCCC[C@H]1c1ccc(OCc2cccc(F)c2)cc1 | > 50 | > 50
O=C(Nc1cccc(-c2ccc(NCCCN3CCCC3)nc2)c1)c1ccccc1 | > 50 | > 50
COc1cc(C2=NCCN2)ccc1-c1cn(-c2cccc(C3=NCCN3)c2)nn1 | > 50 | > 50
CC(C)(C)n1nc(-c2ccccc2)c2c(N)ncnc21 | > 50 | > 50
c1cncc(NCc2ccc(-c3cc4ccncc4cc3OC3CCNCC3)s2)c1 | > 50 | > 50
NCC(=O)N1CCn2c(nc(-c3ccccc3)c2Nc2ccc3c(c2)OCO3)C1 | > 50 | > 50
Cc1cc(C)c2cc(C(=O)NC3CCCCCCC3)[nH]c2c1 | > 50 | > 50
CC(C)(C)n1nc(Cc2ccc(F)c(Cl)c2)c2c(N)ncnc21 | > 50 | > 50
CCOc1ccccc1NC(C)C(=O)Nc1cc(C(F)(F)F)ccc1N1CCOCC1 (stereo not given) | > 50 | > 50
c1ccc(C[C@@H]2CN(c3nccc(Oc4ccc(-n5ccnc5)cc4)n3)CCN2)cc1 | > 50 | > 50
CC(=O)NC[C@@H]1CN(c2ccc(N3CCOCC3)c(F)c2)C(=O)O1 | 3.12 (≈ 1.05 µg/mL) | 6.25 (≈ 2.11 µg/mL)
CO/N=C(\C(=O)OC)c1ccccc1CO/N=C(\C)c1cccc(C(F)(F)F)c1 | > 50 | > 50
Cc1cc(NCC(C)C)c2[nH]nc(-c3ccccc3)c2n1 | > 50 | > 50
Brc1cncc(-c2cc(NCCCn3ccnc3)nc(-c3ccccc3)n2)c1 | > 50 | > 50
c1csc(-c2cnc3sc(NCC4CCOCC4)nn23)c1 | > 50 | > 50
